By IC50 is commonly meant the concentration at which inhibition is half-maximal. The term Inhibition denotes how much of the control response was suppressed.

A short description of series [1]: Superoxide anion (O2-) scavenging activity.
Series [2] deals with Xanthine dehydrogenase/oxidase (Homo sapiens, UniProt P47989). Briefly: Compound was evaluated for inhibition of xanthine oxidase. On the set-up: concentration or dose not given beside the values.
Series [3] can be described thus: Compound was evaluated for hydroxyl radical (OH) scavenging activity.

Chain of Xanthine dehydrogenase/oxidase (P47989 whole entry): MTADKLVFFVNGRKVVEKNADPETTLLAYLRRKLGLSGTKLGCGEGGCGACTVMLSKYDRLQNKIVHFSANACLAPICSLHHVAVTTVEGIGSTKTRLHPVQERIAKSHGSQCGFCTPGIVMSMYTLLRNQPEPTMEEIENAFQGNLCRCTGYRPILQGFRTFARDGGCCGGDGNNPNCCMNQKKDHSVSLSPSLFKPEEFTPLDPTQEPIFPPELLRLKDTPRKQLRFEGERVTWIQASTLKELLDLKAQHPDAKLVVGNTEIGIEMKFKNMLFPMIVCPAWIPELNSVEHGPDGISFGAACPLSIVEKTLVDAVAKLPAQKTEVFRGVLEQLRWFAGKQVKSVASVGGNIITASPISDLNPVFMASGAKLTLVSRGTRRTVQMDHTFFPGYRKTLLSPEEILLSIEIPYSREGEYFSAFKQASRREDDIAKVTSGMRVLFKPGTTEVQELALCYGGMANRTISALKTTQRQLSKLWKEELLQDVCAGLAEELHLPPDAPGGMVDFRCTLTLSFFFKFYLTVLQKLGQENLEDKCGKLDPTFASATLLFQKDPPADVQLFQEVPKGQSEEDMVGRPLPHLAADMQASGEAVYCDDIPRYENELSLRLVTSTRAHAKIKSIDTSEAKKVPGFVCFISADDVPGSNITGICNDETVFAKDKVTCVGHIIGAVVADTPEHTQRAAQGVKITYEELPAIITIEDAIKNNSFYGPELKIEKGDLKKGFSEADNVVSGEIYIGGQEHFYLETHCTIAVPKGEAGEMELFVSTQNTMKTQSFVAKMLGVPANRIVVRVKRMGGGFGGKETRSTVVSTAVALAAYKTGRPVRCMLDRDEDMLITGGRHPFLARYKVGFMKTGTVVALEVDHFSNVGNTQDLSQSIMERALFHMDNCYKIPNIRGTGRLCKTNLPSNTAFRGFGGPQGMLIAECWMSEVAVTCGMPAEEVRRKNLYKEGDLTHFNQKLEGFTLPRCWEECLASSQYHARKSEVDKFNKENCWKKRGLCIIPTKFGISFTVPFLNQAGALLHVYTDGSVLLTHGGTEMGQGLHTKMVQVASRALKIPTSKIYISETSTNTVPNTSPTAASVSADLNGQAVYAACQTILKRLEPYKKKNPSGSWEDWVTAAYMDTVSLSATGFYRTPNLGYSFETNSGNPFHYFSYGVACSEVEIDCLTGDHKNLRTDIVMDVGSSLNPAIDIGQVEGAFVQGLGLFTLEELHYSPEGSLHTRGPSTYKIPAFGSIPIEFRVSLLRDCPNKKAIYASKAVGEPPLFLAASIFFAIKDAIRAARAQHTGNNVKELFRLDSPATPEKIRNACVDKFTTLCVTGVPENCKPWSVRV

With `O=C(O)/C=C/c1ccc(O)c(O)c1` [CAFFEIC ACID], 95 µM corresponded to half-maximal inhibition in series [1] (IC50). The Inhibition in series [2] is given as 18%.

For the compound `O=C(O)/C=C/c1cc(O)c(O)cc1[N+](=O)[O-]`, the 50% inhibitory concentration (IC50) in series [3] came to 250 µM; in series [1], 150 µM. The same compound showed an Inhibition in series [2] of 36%.

The compound `Oc1ccccc1O` [CATECHOL] yielded an IC50 in series [1] of 30 µM. In addition, in series [2], the Inhibition was determined as 5%.

For `O=C(O)/C=C/c1cc(O)c(O)c([N+](=O)[O-])c1`, the figures for the IC50 in series [3] and in series [1] were 400 µM and 185 µM, respectively. This compound also showed an Inhibition in series [2] of 70%.

`O=[N+]([O-])c1cc(O)ccc1O`: the half-inhibitory concentration (IC50) in series [3] turned out to be 85 µM; in series [1] it was 1000 µM. Besides, the Inhibition in series [2] was 12%.

Turning to `O=C(O)/C=C/c1ccc(O)c(O)c1[N+](=O)[O-]`, the half-maximal inhibitory concentration (IC50) was 425 µM in series [3] and 35 µM in series [1]. The compound further came in with an Inhibition in series [2] of 61%.

On to `O=[N+]([O-])c1cccc(O)c1O`, for which the half-inhibitory concentration (IC50) in series [3] amounted to 180 µM; in series [1], 250 µM. Also, the Inhibition in series [2] came out at 5%.

For `O=[N+]([O-])c1ccc(O)c(O)c1` [4-Nitrocatechol], the IC50 in series [3] came to 130 µM; in series [1] it was 250 µM. In addition, the Inhibition in series [2] is given as 9%.

On to `CC(=O)C(Cc1cc(O)c(O)c([N+](=O)[O-])c1)C(C)=O`, for which the figures for the IC50 in series [3] and in series [1] were 300 µM and 500 µM, respectively.
